Reference: paper PMC3263710, “Synthesis and Inhibiting Activity of Some 4-Hydroxycoumarin Derivatives on HIV-1 Protease” (ISRN Pharmaceutics, 2011)
Non-standard residues stand in square brackets, D forms with d. Residues, ends and D or L forms follow the SMILES beside them. *: point of attachment. Sta = CC(C)C[C@H](N)[C@@H](O)CC(=O)O; Isovaleryl = CC(C)CC(=O)*

Columns and labels:
HIV-1 III B = test: Microtiter infection assay, protection of MT-4 cells from HIV cytopathic effect (MTT); format: cell-based; conditions: for Infection assay MTT- % cell survival / inhibition of virus infectivity / viral replication in MT-4 cells: HIV-1-infected MT-4 cells; for Infection assay MTT- % cell survival: compound at MNC, 72–96 hours
Method: The evaluation of anti-HIV effect was done by an in vitro rapid and sensitive microtiter infection assay based on cytolysis quantitation by vital dye (MTT) uptake as an endpoint for infection. Additionally, the effect of inhibitors on endogenous reverse transcriptase (RT) activity of HIV-1 III B-infected MT-4 supernatants was considered as a marker for the ability of blocking HIV-1 replication. MT-4 cells were infected and incubated with each inhibitor for 72–96 hours, and then RT activity was measured in the cell supernatants according to guidelines in the HS-Lenti Kit-RT assay (Cavidi, Sweden). A study of direct effect of the newly synthesized 4-hydroxycoumarins on exogenous recombinant RT (rRT) was also performed. Further, all the compounds were tested for anti-HIV-1 PR activity. Table 3 represents the results of microtiter infection assay using MTT and inhibition of HIV-1 PR activity. The experiments were carried out in maximal nontoxic concentration (MNC) for each compound.
MT-4—a human lymphoblastoid suspension cell line, kindly provided by Gianfranco Pancino— Institute Pasteur, (Unite de Regulation des Infections Retrovirales, Paris, France) represent a classical model for experimental productive infection with HIV-1 III B strain and used as a routine target for study of effect of putative HIV inhibitors in cell culture.
As a source of HIV-1, supernatants of H9/HTLV III B line—a gift from Dr. R. Gallo (NIH, USA)— were used. Supernatants were collected and centrifuged to remove the cells, and virus stocks were prepared with known p24 antigen content (460 pg/mL, Murex HIV Antigen mAB test), RT activity (565.3 pg RT/mL, HS-Lenti RT Activity Kit, Cavidi, Sweden), and infectivity (2 × 10^6 infectious virions/mL, microtiter infection assay). MT-4 and H9/HTLV III B cells were grown in RPMI 1640 supplemented with 10% FCS (invitrogen).
(§1) The following parameters were studied: cytotoxic concentration 50—CC50, where possible (the concentration preventing death of 50% of MT-2 cells), maximal nontoxic concentration—MNC, and inhibitory concentration 50-IC50 (concentration inhibiting by 50% the viral replication). CC50 and MNC were detected by MTT uptake assay. IC50 was studied on MT-4 cells by microtiter infection assay exploring the protection of cells from the cytopathic effect of HIV measured by MTT test. Experiments under conditions of acute infection were performed in 96-well microplates with 6–8 parallels/experiment. Cell controls (MT-4 cells with medium only) and viral controls (virus infected MT-4 cells) were run with each experiment. For antivirus assays, HIV was added to each well to obtain multiplicity of infection 0.1 except the cell controls. Virus attachment was allowed for an hour at 37°C/5% CO2. The plates were incubated for 72–96 hours at 37°C/5% CO2. After that, MTT test was performed as described and absorbance of viable cells was measured colorimetrically at A540 nm. […] For antiviral assays, the mean values of experimental and control rows were compared and the percentage of cells protected (cell survival) under the appropriate concentration of the substance was plotted against the concentration of the substance to obtain IC50. The cell survival (% of cell protection) was calculated according to the following formula:
(1) % cell protection =A540X−A540 Control HIV/ A540 Cell Control−A540 Control HIV ×100, where X is the mean value of A540 of HIV-infected cells treated with appropriate concentration of the compound under study; control HIV is the mean value of A540 of HIV-infected cells without any compound added; cell control is the mean value of A540 of uninfected and untreated with inhibitor cells.

MT-4 cells = test: Cytotoxicity by MTT uptake assay (maximal nontoxic concentration); format: cell-based; conditions: for maximal nontoxic concentration (MNC), concentration tested: reference inhibitors; for maximal nontoxic concentration (MNC), concentration tested / maximal nontoxic concentration (MNC): Table 3; for maximal nontoxic concentration (MNC): MTT uptake assay
Method: The compounds under study were first dissolved in DMSO and further diluted in cell growth medium without fetal serum. All the solutions were prepared ex tempore.
as §1, with “CC50” for “The following parameters were studied: cytotoxic concentration 50—CC50, where possible (the concentration preventing death of 50% of MT-2 cells), maximal nontoxic concentration—MNC, and inhibitory concentration 50-IC50 (concentration inhibiting by 50% the viral replication). CC50”, “formula: […]” for “formula:”

native HIV-1 protease = target: T1, native HIV-1 protease (Human immunodeficiency virus type 1 group M subtype B, UniProt P04585); test: Antiprotease activity using native viral PR, spectrophotometric substrate utilization; format: biochemical; conditions: compound at MNC
T1 construct: The lysis of viral particles and releasing of the active enzyme (protease) was performed using disrupting (lysis) buffer; endogenous in cells; host or cells: Virions from supernatants of chronically infected H9/HTLV IIIB cells, concentrated 50x and lysed with Triton X-100
Method: A method described earlier by Broglia et al., 2006 [19], for detection of recombinant protease activity was modified to use native viral protease. As a source of native HIV-1 protease, again suspension of concentrated viral stock (50x) from chronically infected H9/HTLV IIIB cell supernatants was used. The lysis of viral particles and releasing of the active enzyme (protease) was performed using disrupting (lysis) buffer containing 2.5% Triton X-100 in phosphate buffer. The concentration of the tissue culture fluid containing the virus was done by ultracentrifugation in Biofuge Stratos, Heraeus, for 1 hour, at 4°C and 35000 rev/min. The pellet was resuspended to obtain 50x concentrate in disrupting buffer.
The following reaction mixture was prepared for each experiment : 1000 μL phosphate buffer (20 mM, pH 6.0); 20 μL HIV protease substrate III ([…], 760 μM; Bachem, Switzerland) in DMSO, prepared ex tempore; 20 μL enzyme (stock HIV) taken from a solution containing 25 μL disrupting (lysis) buffer + 100 μL HIV-stock, incubated 40 min at 37°C prior to experiment.
The HIV-1 PR activity was measured using direct spectrophotometric reading of the enzyme reaction substrate utilization at 300 nm, at room temperature and 1 cm pathlength, using T80 + UV-Vis spectrophotometer (PG instruments). The initial reaction velocity (V0) was adjusted to be 0.0020–0.0030 ΔAbs/min by varying the enzyme activity (viral concentration). The tested compound and the reference inhibitor (pepstatin used here) was added to the reaction mixture prior to enzyme, in order to perform the screening for inhibitory effect. IC50 was defined as the concentration of the compound tested that decreases the velocity of the reaction by 50% of the initial velocity without tested (reference) compound.

HIV-1 protease = test system: HIV-1 protease; design: method as in PMID 8185622; conditions: binding activity of the experimental ligands on HIV-1 protease; cited from earlier work

Row | Compound | Infection assay MTT- % cell survival (HIV-1 III B) | % Inhibition of HIV-1 protease activity (native HIV-1 protease) | maximal nontoxic concentration (MNC) (MT-4 cells) | IC50 (HIV-1 protease) | further results
1 | Nc1nc(NC2CC2)c2ncn([C@H]3C=C[C@@H](CO)C3)c2n1 [Abacavir, reference compound] | 98% |  |  |  | maximal nontoxic concentration (MNC), concentration tested (MT-4 cells): Abacavir® (35 × 10^−6 M)
2 | CCOC(=O)C(C(C)=O)C(c1cccc([N+](=O)[O-])c1)c1c(O)c2ccccc2oc1=O (stereo not shown) [Compound (7), Ethyl 2-[(4-Hydroxy-2-Oxo-2H-Chromen-3-yl)(3-Nitrophenyl)Methyl]-3-Oxobutanoate] | 78% | 25% | (7) (0.001) μM |  | inhibition of virus infectivity / viral replication in MT-4 cells (HIV-1 III B): 76–78%; IC50 (HIV-1 III B; Human immunodeficiency virus 1, MT4, read-out: IC50 (concentration inhibiting by 50% the viral replication)): 0.01 nM; maximal nontoxic concentration (MT-4 cells; as stated in abstract): 1 mM
3 | 4-hydroxy-3-(3-oxo-1-phenylbutyl)-2H-chromen-2-one [Ligand (5)] |  |  |  | 18 µM | 
4 | CCOC(=O)C(C(C)=O)C(c1ccc(C(=O)O)cc1)c1c(O)c2ccccc2oc1=O (stereo not shown) [(11), 4-[1-(4-Hydroxy-2-Oxo-2H-Chromen-3-yl)-2-(Ethoxycarbonyl)-3-Oxobutyl]Benzoic Acid] | 0% | 0% | (11) (0.0001) μM |  | 
5 | CC(C)CC(=O)N[C@H](C(=O)N[C@H](C(=O)N[C@@H](CC(C)C)[C@@H](O)CC(=O)N[C@@H](C)C(=O)N[C@@H](CC(C)C)[C@@H](O)CC(=O)O)C(C)C)C(C)C [Pepstatin, pepstatin, reference compound] (Isovaleryl-VV[Sta]A[Sta]-OH) |  | 100% |  |  | maximal nontoxic concentration (MNC), concentration tested (MT-4 cells): Pepstatin® (4.5 × 10^−5 M)
6 | CCOC(=O)C(C(C)=O)C(c1ccc(O)cc1)c1c(O)c2ccccc2oc1=O (stereo not shown) [(9), Ethyl 2-[(4-Hydroxy-2-Oxo-2H-Chromen-3-yl)(4-Hydroxyphenyl)Methyl]-3-Oxobutanoate] | 0% | 0% | (9) (0.0001) μM |  | 
7 | 3-(3,4-dimethoxybenzyl)-4-hydroxy-2H-chromen-2-one [Ligand (2)] |  |  |  | 84 µM | 
8 | CCOC(=O)C(C(C)=O)C(c1ccc(O)c(O)c1)c1c(O)c2ccccc2oc1=O (stereo not shown) [(10), Ethyl 2-[(3,4-Dihydroxyphenyl)(4-Hydroxy-2-Oxo-2H-Chromen-3-yl)Methyl]-3-Oxobuta-Noate] | 30% | 16% | (10) (0.0001) μM |  | inhibition of virus infectivity / viral replication in MT-4 cells (HIV-1 III B): inhibited viral replication
9 | CCOC(=O)C(C(C)=O)C(c1ccc([N+](=O)[O-])cc1)c1c(O)c2ccccc2oc1=O (stereo not shown) [(8), Ethyl 2-[(4-Hydroxy-2-Oxo-2H-Chromen-3-yl)(4-Nitrophenyl)Methyl]-3-Oxobutanoate] | 0% | 0% | (8) (0.001) μM |  | 
10 | CC(=O)C(C(C)=O)C(c1ccc(O)cc1)c1c(O)c2ccccc2oc1=O (stereo not shown) [(12), 3-[(4-Hydroxy-2-Oxo-2H-Chromen-3-yl)(4-Hydroxyphenyl)Methyl]Pentane-2,4-Dione] | 0% | 0% | (12) (0.001) μM |  | 
11 | 3-(3,4-dimethoxybenzyl)-4-hydroxy-8-methyl-2H-chromen-2-one [Ligand (3)] |  |  |  | 23 µM | 
12 | 4-hydroxy-3-(1-phenoxypropyl)-2H-chromen-2-one [Ligand (1)] |  |  |  | 2.7 µM | 
13 | 3-benzyl-4-hydroxy-8-phenyl-2H-chromen-2-one [Ligand (4)] |  |  |  | 8.1 µM | 
